Measurements reported in PubChem BioAssay (NCI).
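GI50: concentration for 50% inhibition of growth. At the TGI there is no net growth.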

How the values were obtained:
Experiment in all cases: inhibition of tumour cell growth, NCI panel, 384-well format
PC-3 prostate = test system: PC-3 prostate
UACC-62 melanoma = test system: UACC-62 melanoma
SR leukemia = test system: SR leukemia
OVCAR-4 ovarian = test system: OVCAR-4 ovarian
NCI-H460 NSCLC = test system: NCI-H460 NSCLC
U251 glioblastoma = test system: U251 glioblastoma
UO-31 renal = test system: UO-31 renal
HOP-62 NSCLC = test system: HOP-62 NSCLC
SNB-75 CNS = test system: SNB-75 CNS
OVCAR-3 ovarian = test system: OVCAR-3 ovarian
OVCAR-5 ovarian = test system: OVCAR-5 ovarian
HL-60(TB) leukemia = test system: HL-60(TB) leukemia
CAKI-1 renal = test system: CAKI-1 renal
MCF7 breast = test system: MCF7 breast
SK-MEL-5 melanoma = test system: SK-MEL-5 melanoma
MDA-MB-231 breast = test system: MDA-MB-231 breast
IGROV1 ovarian = test system: IGROV1 ovarian
RXF 393 renal = test system: RXF 393 renal
K-562 leukemia = test system: K-562 leukemia
SN12C renal = test system: SN12C renal
LOX IMVI melanoma = test system: LOX IMVI melanoma
DU-145 prostate = test system: DU-145 prostate
CCRF-CEM leukemia = test system: CCRF-CEM leukemia
SNB-19 CNS = test system: SNB-19 CNS
TK-10 renal = test system: TK-10 renal
T-47D breast = test system: T-47D breast
NCI/ADR-RES ovarian = test system: NCI/ADR-RES ovarian
RPMI-8226 leukemia = test system: RPMI-8226 leukemia
KM12 colon = test system: KM12 colon
MOLT-4 leukemia = test system: MOLT-4 leukemia
ACHN renal = test system: ACHN renal
HOP-92 NSCLC = test system: HOP-92 NSCLC
NCI-H23 lung = test system: NCI-H23 lung
COLO 205 colon = test system: COLO 205 colon
BT-549 breast = test system: BT-549 breast
MDA-MB-435 melanoma = test system: MDA-MB-435 melanoma
SF-539 CNS = test system: SF-539 CNS
A549 NSCLC = test system: A549 NSCLC
EKVX NSCLC = test system: EKVX NSCLC
786-0 renal = test system: 786-0 renal
M14 melanoma = test system: M14 melanoma
HT29 colon = test system: HT29 colon
SK-OV-3 ovarian = test system: SK-OV-3 ovarian
SF-295 CNS = test system: SF-295 CNS
HCC-2998 colon = test system: HCC-2998 colon
SK-MEL-28 melanoma = test system: SK-MEL-28 melanoma
SW-620 colon = test system: SW-620 colon

Structure (SMILES): Cc1nc(NC(=O)N2CCC[C@H]2C(N)=O)sc1-c1ccnc(C(C)(C)C(F)(F)F)c1
- GI50 (PC-3 prostate): 5.73 µM
- TGI (PC-3 prostate): 25.4 µM
- GI50 (UACC-62 melanoma): 10.2 µM
- TGI (UACC-62 melanoma): 24 µM
- GI50 (SR leukemia): 3.57 µM
- TGI (SR leukemia): 15.6 µM
- GI50 (OVCAR-4 ovarian): 7.73 µM
- TGI (OVCAR-4 ovarian): 40.7 µM
- GI50 (NCI-H460 NSCLC): 2.13 µM
- TGI (NCI-H460 NSCLC): 43 µM
- GI50 (U251 glioblastoma): 10.3 µM
- TGI (U251 glioblastoma): 39.5 µM
- GI50 (UO-31 renal): 8.46 µM
- TGI (UO-31 renal): 58.5 µM
- GI50 (HOP-62 NSCLC): 18 µM
- TGI (HOP-62 NSCLC): > 94.3 µM
- GI50 (SNB-75 CNS): 1.17 µM
- TGI (SNB-75 CNS): 8.53 µM
- GI50 (OVCAR-3 ovarian): 6.07 µM
- TGI (OVCAR-3 ovarian): 27.8 µM
- GI50 (OVCAR-5 ovarian): 5.5 µM
- TGI (OVCAR-5 ovarian): 37.4 µM
- GI50 (HL-60(TB) leukemia): 0.727 µM
- TGI (HL-60(TB) leukemia): 9.24 µM
- GI50 (CAKI-1 renal): 7.1 µM
- TGI (CAKI-1 renal): 26.9 µM
- GI50 (MCF7 breast): 0.205 µM
- TGI (MCF7 breast): 17.8 µM
- GI50 (SK-MEL-5 melanoma): 6.54 µM
- TGI (SK-MEL-5 melanoma): 14.9 µM
- GI50 (MDA-MB-231 breast): 13.5 µM
- TGI (MDA-MB-231 breast): 48.7 µM
- GI50 (IGROV1 ovarian): 0.118 µM
- TGI (IGROV1 ovarian): 1.34 µM
- GI50 (RXF 393 renal): 5.57 µM
- TGI (RXF 393 renal): 22.5 µM
- GI50 (K-562 leukemia): 15.6 µM
- TGI (K-562 leukemia): 35.1 µM
- GI50 (SN12C renal): 14.7 µM
- TGI (SN12C renal): 80.1 µM
- GI50 (LOX IMVI melanoma): 7.55 µM
- TGI (LOX IMVI melanoma): 28 µM
- GI50 (DU-145 prostate): 10.8 µM
- TGI (DU-145 prostate): 33.7 µM
- GI50 (CCRF-CEM leukemia): 3.51 µM
- TGI (CCRF-CEM leukemia): 15.6 µM
- GI50 (SNB-19 CNS): 28.6 µM
- TGI (SNB-19 CNS): > 100 µM
- GI50 (TK-10 renal): 4.71 µM
- TGI (TK-10 renal): 28.5 µM
- GI50 (T-47D breast): 0.0839 µM
- TGI (T-47D breast): 0.592 µM
- GI50 (NCI/ADR-RES ovarian): 16.5 µM
- TGI (NCI/ADR-RES ovarian): 71.9 µM
- GI50 (RPMI-8226 leukemia): 7.05 µM
- TGI (RPMI-8226 leukemia): 21.7 µM
- GI50 (KM12 colon): 25.8 µM
- TGI (KM12 colon): > 92.8 µM
- GI50 (MOLT-4 leukemia): 0.857 µM
- TGI (MOLT-4 leukemia): 4.24 µM
- GI50 (ACHN renal): 9.43 µM
- TGI (ACHN renal): 48.7 µM
- GI50 (HOP-92 NSCLC): 3.09 µM
- TGI (HOP-92 NSCLC): 20.6 µM
- GI50 (NCI-H23 lung): 12.1 µM
- TGI (NCI-H23 lung): 44.4 µM
- GI50 (COLO 205 colon): 7.15 µM
- TGI (COLO 205 colon): 43.4 µM
- GI50 (BT-549 breast): 5.81 µM
- TGI (BT-549 breast): 28.6 µM
- GI50 (MDA-MB-435 melanoma): 24.6 µM
- TGI (MDA-MB-435 melanoma): > 80.3 µM
- GI50 (SF-539 CNS): 12.5 µM
- TGI (SF-539 CNS): 38.3 µM
- GI50 (A549 NSCLC): 6.07 µM
- TGI (A549 NSCLC): 23.7 µM
- GI50 (EKVX NSCLC): 5.55 µM
- TGI (EKVX NSCLC): 24.8 µM
- GI50 ([…]-0 renal): 17.4 µM
- TGI (786-0 renal): 54.8 µM
- GI50 (M14 melanoma): 15 µM
- TGI (M14 melanoma): > 74.2 µM
- GI50 (HT29 colon): 1.58 µM
- TGI (HT29 colon): 33.4 µM
- GI50 (SK-OV-3 ovarian): 0.725 µM
- TGI (SK-OV-3 ovarian): 12.1 µM
- GI50 (SF-295 CNS): 9.16 µM
- TGI (SF-295 CNS): 33.5 µM
- GI50 (HCC-2998 colon): 6.67 µM
- TGI (HCC-2998 colon): 25 µM
- GI50 (SK-MEL-28 melanoma): 7.87 µM
- TGI (SK-MEL-28 melanoma): > 83 µM
- GI50 (SW-620 colon): 8.53 µM
- TGI (SW-620 colon): 40.2 µM

Structure (SMILES): CC(=O)N1CC(F)(F)c2c(Sc3ncc(N4CCC5(CC4)COC[C@H]5N)nc3N)cccc21
- GI50 (PC-3 prostate): 13.4 µM
- TGI (PC-3 prostate): 48.6 µM
- GI50 (UACC-62 melanoma): 12.5 µM
- TGI (UACC-62 melanoma): 25.6 µM
- GI50 (SR leukemia): 2.35 µM
- TGI (SR leukemia): 6.03 µM
- GI50 (OVCAR-4 ovarian): 9.78 µM
- TGI (OVCAR-4 ovarian): 35.9 µM
- GI50 (NCI-H460 NSCLC): 18.6 µM
- TGI (NCI-H460 NSCLC): 34.6 µM
- GI50 (U251 glioblastoma): 12.7 µM
- TGI (U251 glioblastoma): 26.6 µM
- GI50 (UO-31 renal): 6.39 µM
- TGI (UO-31 renal): 20.3 µM
- GI50 (HOP-62 NSCLC): 13.7 µM
- TGI (HOP-62 NSCLC): 30.9 µM
- GI50 (SNB-75 CNS): 5.83 µM
- TGI (SNB-75 CNS): 29.1 µM
- GI50 (OVCAR-3 ovarian): 14.1 µM
- TGI (OVCAR-3 ovarian): 30.7 µM
- GI50 (OVCAR-5 ovarian): 18.1 µM
- TGI (OVCAR-5 ovarian): 57.3 µM
- GI50 (HL-60(TB) leukemia): 10 µM
- TGI (HL-60(TB) leukemia): 21.6 µM
- GI50 (CAKI-1 renal): 2.74 µM
- TGI (CAKI-1 renal): 21.1 µM
- GI50 (MCF7 breast): 0.0453 µM
- TGI (MCF7 breast): 11.4 µM
- GI50 (SK-MEL-5 melanoma): 15.7 µM
- TGI (SK-MEL-5 melanoma): 29.2 µM
- GI50 (MDA-MB-231 breast): 15.3 µM
- TGI (MDA-MB-231 breast): 41.4 µM
- GI50 (IGROV1 ovarian): 6.38 µM
- TGI (IGROV1 ovarian): 24.5 µM
- GI50 (RXF 393 renal): 2.22 µM
- TGI (RXF 393 renal): 8.72 µM
- GI50 (K-562 leukemia): 0.774 µM
- TGI (K-562 leukemia): 13.9 µM
- GI50 (SN12C renal): 11.2 µM
- TGI (SN12C renal): 50.9 µM
- GI50 (LOX IMVI melanoma): 12.4 µM
- TGI (LOX IMVI melanoma): 25 µM
- GI50 (DU-145 prostate): 19.1 µM
- TGI (DU-145 prostate): 63.1 µM
- GI50 (CCRF-CEM leukemia): 15.3 µM
- TGI (CCRF-CEM leukemia): 28.6 µM
- GI50 (SNB-19 CNS): 13.6 µM
- TGI (SNB-19 CNS): 41.7 µM
- GI50 (TK-10 renal): 4.9 µM
- TGI (TK-10 renal): 19.2 µM
- GI50 (T-47D breast): 11.5 µM
- TGI (T-47D breast): 26.3 µM
- GI50 (NCI/ADR-RES ovarian): 16.3 µM
- TGI (NCI/ADR-RES ovarian): 56.8 µM
- GI50 (RPMI-8226 leukemia): 3.87 µM
- TGI (RPMI-8226 leukemia): 15.5 µM
- GI50 (KM12 colon): 2.97 µM
- TGI (KM12 colon): 13.5 µM
- GI50 (MOLT-4 leukemia): 14.1 µM
- TGI (MOLT-4 leukemia): 27.2 µM
- GI50 (ACHN renal): 6.61 µM
- TGI (ACHN renal): 27.1 µM
- GI50 (HOP-92 NSCLC): 2.17 µM
- TGI (HOP-92 NSCLC): 14.2 µM
- GI50 (NCI-H23 lung): 2.06 µM
- TGI (NCI-H23 lung): 15.2 µM
- GI50 (COLO 205 colon): 16.6 µM
- TGI (COLO 205 colon): 32 µM
- GI50 (BT-549 breast): 4.68 µM
- TGI (BT-549 breast): 22.1 µM
- GI50 (MDA-MB-435 melanoma): 29.1 µM
- TGI (MDA-MB-435 melanoma): 91.7 µM
- GI50 (SF-539 CNS): 8.31 µM
- TGI (SF-539 CNS): 21.1 µM
- GI50 (A549 NSCLC): 14.1 µM
- TGI (A549 NSCLC): 35.2 µM
- GI50 (EKVX NSCLC): 6.02 µM
- TGI (EKVX NSCLC): 43.1 µM
- GI50 ([…]-0 renal): 10.7 µM
- TGI (786-0 renal): 23.5 µM
- GI50 (M14 melanoma): 10.4 µM
- TGI (M14 melanoma): 22.4 µM
- GI50 (HT29 colon): 3.75 µM
- TGI (HT29 colon): 12.7 µM
- GI50 (SK-OV-3 ovarian): 4.82 µM
- TGI (SK-OV-3 ovarian): 19.1 µM
- GI50 (SF-295 CNS): 15.5 µM
- TGI (SF-295 CNS): 31.2 µM
- GI50 (HCC-2998 colon): 17.3 µM
- TGI (HCC-2998 colon): 32.1 µM
- GI50 (SK-MEL-28 melanoma): 13.1 µM
- TGI (SK-MEL-28 melanoma): 26.2 µM
- GI50 (SW-620 colon): 11.5 µM
- TGI (SW-620 colon): 23.9 µM
